# Assay results: paper PMC3707514 (Chemical research in toxicology, 2013)
# How the values were obtained:
# [1] = target: T1, P450 2S1 (Homo sapiens, UniProt Q96SQ9); format: biochemical
# T1 sequence (Q96SQ9 1-504): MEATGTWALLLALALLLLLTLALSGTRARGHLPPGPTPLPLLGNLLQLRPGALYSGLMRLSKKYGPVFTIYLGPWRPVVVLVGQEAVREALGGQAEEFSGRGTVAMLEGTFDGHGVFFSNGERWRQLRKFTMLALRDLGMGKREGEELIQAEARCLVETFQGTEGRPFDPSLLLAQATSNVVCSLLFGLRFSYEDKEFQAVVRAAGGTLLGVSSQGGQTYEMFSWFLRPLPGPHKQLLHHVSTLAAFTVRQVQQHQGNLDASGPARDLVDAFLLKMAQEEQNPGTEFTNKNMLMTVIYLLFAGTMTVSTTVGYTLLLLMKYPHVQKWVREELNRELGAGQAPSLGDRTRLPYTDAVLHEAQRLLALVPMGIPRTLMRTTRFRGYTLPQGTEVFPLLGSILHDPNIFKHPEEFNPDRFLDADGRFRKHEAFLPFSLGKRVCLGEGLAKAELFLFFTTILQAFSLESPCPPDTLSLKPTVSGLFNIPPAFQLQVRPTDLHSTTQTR
# [2] = target: T1, P450 2S1; format: biochemical; remark: listed apart in the source
# [3] = target: T1, P450 2S1; format: biochemical; remark: listed apart in the source
# [4] = target: T1, P450 2S1; assay: UV-visible difference spectral titration of purified P450 2S1; format: binding
compound,measurement,setting,value
ONc1ccc2c(c1)Cc1ccccc1-2 [2-HONH-fluorene],"anaerobic reduction to 2-aminofluorene by purified P450 2S1, HPLC, minus-P450 co",[1],0.34 ± 0.12 min⁻¹
ONc1ccc2ccccc2c1 [2-HONH-naphthalene],"anaerobic reduction to 2-naphthylamine by purified P450 2S1, HPLC, minus-P450 co",[2],2.4 ± 0.8 min⁻¹
ONc1ccc(-c2ccccc2)cc1 [4-HONH-biphenyl],"anaerobic reduction to 4-aminobiphenyl by purified P450 2S1, HPLC, minus-P450 co",[3],0.18 ± 0.01 min⁻¹
"Cc1cc(-c2nc3cc(F)ccc3s2)ccc1NO [HONH-5F 203, 2-(4-hydroxylamino-3-methylphenyl)-5-fluorobenzothiazole]",Kd,[4],30 ± 10 µM
